Reference: US12649750B2, “Macrocyclic compounds, compositions, and methods of using thereof” (Sionna Therapeutics Inc., priority 2022, dated 2026)

Molecular target: T1, NBD1 (Homo sapiens, UniProt P13569)
T1 construct: Purified recombinant NBD1 was produced using previously described methods; made in house
Assay: Aggregation analysis using differential static light scattering (DSLS), thermal stability of NBD1 (ΔTagg)
Type: binding
Settings: ΔTagg versus DMSO control, NBD1 0.2 mg/ml
Experimental: Example 386. Aggregation Analysis Using Differential Static Light Scattering (DSLS)
Purified recombinant NBD1 was produced using previously described methods (A. Schmidt, J. L. Mendoza, P. J. Thomas (2011) Biochemical and Biophysical Approaches to Probe CFTR Structure (365-376) M. D. Amaral, K. Kunzelmann (eds.), Cystic Fibrosis, Methods in Molecular Biology 741, Springer Science+Business Media). The effect of test compounds on thermal stability of NBD1 was evaluated by differential static light scattering (DSLS) using the Harbinger Stargazer-384 instrument (Epiphyte Three, Toronto, Canada). Test compounds were dissolved and diluted to desired concentrations in 100% DMSO. The compounds or DMSO controls (100 nL) were stamped into wells of a […] low volume optical plate (Corning Inc., Corning, NY) using the Echo 555 acoustic liquid handler (Labcyte Inc., San Jose, CA).
NBD1 protein was diluted to 0.2 mg/ml in S200 buffer (50 mM Tris-HCl, 150 mM NaCl, 5 mM MgCl2, 2 mM ATP, 2 mM DTT, pH7.6) containing 1% glycerol. 10 uL of protein solution was aliquoted into the 384-well plate harboring the test compounds and 10 uL mineral oil was overlaid onto the protein solution, using the epMotion robotic liquid handler (Eppendorf North America, Hauppauge, NY). After placing into the Stargazer instrument, the plate was heated at 1° C. per minute to 70° C. Images were captured from 25° C. to 70° C. every 0.5° C. At the end of the experiment run, instrument software integrated image files and analyzed data automatically. A […] regression curve was generated for each well, representing the increase in light scattering over time. A temperature of aggregation (Tagg) was calculated based on the inflection point of the curve. To better compare data across experiments the average Tagg for DMSO control wells was calculated and subtracted from values for wells containing compounds to obtain a “ΔTagg” value. These ΔTagg values reflect stabilizing efficacy of the compounds. As set forth in Table 2 below, an ΔTagg value less than or equal to 5° C. is marked “A”; a value above 5° C. and less than or equal to 10° C. is marked “B”; a value greater than 10° C. and less than or equal to 25° C. is marked “C”.

T1 sequence (P13569 423-646 limits assumed): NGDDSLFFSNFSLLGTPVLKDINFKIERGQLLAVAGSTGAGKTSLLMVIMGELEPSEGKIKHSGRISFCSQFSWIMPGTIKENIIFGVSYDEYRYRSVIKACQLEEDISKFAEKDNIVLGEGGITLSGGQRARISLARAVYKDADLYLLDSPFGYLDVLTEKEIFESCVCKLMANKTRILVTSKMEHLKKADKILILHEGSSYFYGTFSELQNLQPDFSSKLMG

Structure (SMILES) | DSLS 3D (100 μM ΔT)
COCC(Cc1cccc([C@@]2(C)CCCC(C)(C)CS(=O)(=O)CCc3c(c(F)c(F)c4[nH]ccc34)[S+]([O-])c3ccnc(c3)-c3nc2nn3C)c1)C(=O)O (single isomer, unassigned) [Compound 375] | B (a value above 5 °C and less than or equal to 10 °C is marked “B”)
C[C@H](Cc1cccc([C@@]2(C)CCCC(C)(C)CS(=O)(=O)CCc3c(c(F)cc4[nH]ccc34)[S+]([O-])c3cc(c(F)cc3N)-c3nc2nn3C)c1)C(=O)O (single isomer, unassigned) [Compound 379A] | A (an ΔTagg value less than or equal to 5 °C is marked “A”)
C[C@H](Cc1cccc([C@@]2(C)CCCC(C)(C)CS(=O)(=O)CCc3c(c(F)cc4[nH]ccc34)[S+]([O-])c3cc(c(F)cc3N)-c3nc2nn3C)c1)C(=O)O (single isomer, unassigned) [Compound 379B] | A (an ΔTagg value less than or equal to 5 °C is marked “A”)
C[C@H](Cc1cccc(C2NCCOCCS(=O)(=O)Cc3c(c(F)c(F)c4[nH]ccc34)Oc3ccc(F)c(c3)-c3nc2nn3C)c1)C(=O)O (single isomer, unassigned) [Compound 381A] | A (an ΔTagg value less than or equal to 5 °C is marked “A”)
C[C@H](Cc1cccc(C2NCCOCCS(=O)(=O)Cc3c(c(F)c(F)c4[nH]ccc34)Oc3ccc(F)c(c3)-c3nc2nn3C)c1)C(=O)O (single isomer, unassigned) [Compound 381B] | A (an ΔTagg value less than or equal to 5 °C is marked “A”)
C[C@H](Cc1cccc([C@@]2(C)CCCC(C)(C)CS(=O)(=O)CC(N)c3c(c(F)c(F)c4[nH]ccc34)Oc3ccc(F)c(c3)-c3nc2nn3C)c1)C(N)=O (single isomer, unassigned) [Compound 385A] | B (a value above 5 °C and less than or equal to 10 °C is marked “B”)
C[C@H](Cc1cccc([C@@]2(C)CCCC(C)(C)CS(=O)(=O)CC(N)c3c(c(F)c(F)c4[nH]ccc34)Oc3ccc(F)c(c3)-c3nc2nn3C)c1)C(N)=O (single isomer, unassigned) [Compound 385B] | A (an ΔTagg value less than or equal to 5 °C is marked “A”)
O=C(O)CCc1cccc(C2CCCCCCS(=O)(=O)CCc3c(c(F)cc4[nH]ccc34)Oc3ccc(F)c(c3)-c3ncc2[nH]3)c1 (stereo not drawn) [Compound 35, 3-[3-(23,29-Difluoro-13,13-dioxo-25-oxa-13λ6-thia-3,20,31-triazapentacyclo[24.3.1.12,5.016,24.017,21]hentriaconta-1(30),2,4,16,18,21,23,26,28-nonaen-6-yl)phenyl]propanoic Acid] | C (a value greater than 10 °C and less than or equal to 25 °C is marked “C”)
O=C(O)CCc1cccc(C2CCCCCS(=O)(=O)CCc3c(c(F)cc4[nH]ccc34)Oc3ccc(F)c(c3)-c3ncc2[nH]3)c1 (stereo not drawn) [Compound 36, 3-[3-(22,28-Difluoro-12,12-dioxo-24-oxa-12λ6-thia-3,19,30-triazapentacyclo[23.3.1.12,5.015,23.016,20]triaconta-1(29),2,4,15,17,20,22,25,27-nonaen-6-yl)phenyl]propanoic Acid] | C (a value greater than 10 °C and less than or equal to 25 °C is marked “C”)
CN1CCS(=O)(=O)CCC(C)(c2cccc(CCC(=O)O)c2)c2cnc([nH]2)-c2cc(ccc2F)Oc2c(F)cc3[nH]ccc3c2CC1=O (stereo not drawn) [Compound 38, 3-[3-(22,28-Difluoro-6,12-dimethyl-9,9,13-trioxo-24-oxa-9λ6-thia-3,12,19,30-tetrazapentacyclo[23.3.1.12,5.015,23.016,20]triaconta-1(29),2,4,15,17,20,22,25,27-nonaen-6-yl)phenyl]propanoic Acid] | C (a value greater than 10 °C and less than or equal to 25 °C is marked “C”)
CN1CCS(=O)(=O)CCC(C)(c2cccc(CCC(=O)O)c2)c2cnc([nH]2)-c2cc(ccc2F)Oc2c(F)cc3[nH]ccc3c2CCC1=O (stereo not drawn) [Compound 39, 3-[3-(23,29-Difluoro-6,12-dimethyl-9,9,13-trioxo-25-oxa-9λ6-thia-3,12,20,31-tetrazapentacyclo[24.3.1.12,5.016,24.017,21]hentriaconta-1(30),2,4,16,18,21,23,26,28-nonaen-6-yl)phenyl]propanoic Acid] | B (a value above 5 °C and less than or equal to 10 °C is marked “B”)
CC1(C)CCCC(C)(c2cccc(CCC(=O)O)c2)c2csc(n2)-c2cc(ccc2F)Oc2c(F)cc3[nH]ccc3c2CCS(=O)(=O)C1 (stereo not drawn) [Compound 49, 3-[3-(22,28-Difluoro-6,10,10-trimethyl-12,12-dioxo-24-oxa-3,12lambda6-dithia-19,30-diazapentacyclo[23.3.1.12,5.015,23.016,20]triaconta-1(29),2(30),4,15,17,20,22,25,27-nonaen-6-yl)phenyl]propanoic acid] | C (a value greater than 10 °C and less than or equal to 25 °C is marked “C”)
CCOC(=O)[C@@H](C)Cc1cccc(C2CCCC(C)(C)CS(=O)(=O)CCc3c(c(F)cc4[nH]ccc34)C(=O)c3cccc(c3)-c3ccn2n3)c1 (stereo partly drawn) [Compound 161, Ethyl (2S)-3-[3-(22-fluoro-10,10-dimethyl-12,12,24-trioxo-12λ6-thia-5,19,30-triazapentacyclo[23.3.1.12,5.015,23.016,20]triaconta-1(29),2(30),3,15,17,20,22,25,27-nonaen-6-yl)phenyl]-2-methyl-propanoate] | A (an ΔTagg value less than or equal to 5 °C is marked “A”)
C[C@H](Cc1cccc([C@@]2(C)CCCC(C)(C)CS(=O)(=O)CCc3c(c(F)c(F)c4[nH]ccc34)S(=O)(=O)c3ccnc(c3)-c3nc2nn3C)c1)C(=O)O [Compound 301, (2R)-3-[3-[(6R)-21,22-difluoro-3,6,10,10-tetramethyl-12,12,24,24-tetraoxo-12λ6,24λ6-dithia-3,4,19,28,30-pentazapentacyclo[23.3.1.12,5.015,23.016,20]triaconta-1(29),2(30),4,15,17,20,22,25,27-nonaen-6-yl]phenyl]-2-methyl-propanoic Acid] | A (an ΔTagg value less than or equal to 5 °C is marked “A”)
Cn1nc2nc1-c1cc(ccc1F)Sc1c(F)cc3[nH]ccc3c1CCS(=O)(=O)CC(C)(C)CCC[C@]2(C)c1cccc([C@H](O)CO)c1 [Compound 302A, (1S)-1-[3-[(6R)-22,28-Difluoro-3,6,10,10-tetramethyl-12,12-dioxo-12λ6,24-dithia-3,4,19,30-tetrazapentacyclo[23.3.1.12,5.015,23.016,20]triaconta-1(29),2(30),4,15,17,20,22,25,27-nonaen-6-yl]phenyl]ethane-1,2-diol] | B (a value above 5 °C and less than or equal to 10 °C is marked “B”)
Cn1nc2nc1-c1cc(ccc1F)Sc1c(F)c(F)c3[nH]ccc3c1CCS(=O)(=O)CC(C)(C)CCC[C@]2(C)c1cccc(CC2(C(=O)O)CC2)c1 [Compound 303A, 1-[[3-[(6R)-21,22,28-Trifluoro-3,6,10,10-tetramethyl-12,12-dioxo-12λ6,24-dithia-3,4,19,30-tetrazapentacyclo[23.3.1.12,5.015,23.016,20]triaconta-1(29),2(30),4,15,17,20,22,25,27-nonaen-6-yl]phenyl]methyl]cyclopropanecarboxylic acid] | B (a value above 5 °C and less than or equal to 10 °C is marked “B”)
C[C@@H](Cc1cccc([C@@]2(C)CCCC(C)(C)CS(=O)(=O)CCc3c(c(F)c(F)c4[nH]ccc34)Cc3ccnc(c3)-c3nc2nn3C)c1)C(=O)O [Compound 304, (2S)-3-[3-[(6R)-21,22-Difluoro-3,6,10,10-tetramethyl-12,12-dioxo-12λ6-thia-3,4,19,28,30-pentazapentacyclo[23.3.1.12,5.015,23.016,20]triaconta-1(29),2(30),4,15,17,20,22,25,27-nonaen-6-yl]phenyl]-2-methyl-propanoic Acid] | B (a value above 5 °C and less than or equal to 10 °C is marked “B”)
C[C@H](Cc1cccc([C@@]2(C)CCCC(C)(C)CS(=O)(=O)CCc3c(c(F)c(F)c4[nH]ccc34)Cc3ccnc(c3)-c3nc2nn3C)c1)C(=O)O [Compound 305, (2R)-3-[3-[(6R)-21,22-Difluoro-3,6,10,10-tetramethyl-12,12-dioxo-12λ6-thia-3,4,19,28,30-pentazapentacyclo[23.3.1.12,5.015,23.016,20]triaconta-1(29),2(30),4,15,17,20,22,25,27-nonaen-6-yl]phenyl]-2-methyl-propanoic acid] | B (a value above 5 °C and less than or equal to 10 °C is marked “B”)
